Results published in ChEMBL document CHEMBL4052684, “A novel intestinal-restricted FXR agonist” (Bioorg Med Chem Lett, 2017).
Active and inactive are the calls of the source. No cut-off for these calls is given here.

How the values were obtained:
Liver = assay: Drug accumulation in C57BL/6 mouse liver at 100 mg/kg, ig for 5 days by LC-MS/MS method; type: ADME, organism-based; conditions: in vivo, po, 120 h
[1] = Efflux ratio in human Caco2 cells at 20 uM by LC-MS/MS method; type: ADME, cell-based; conditions: Caco-2
Mus musculus [2] = assay: Induction of FXR activation in C57BL/6 mouse ileum assessed as reduction in FXR-mediated Cyp7A1 mRNA expression at 100 mg/kg, ig for 5 days by PCR method; type: functional, organism-based
Mus musculus [3] = assay: Induction of FXR activation in C57BL/6 mouse ileum assessed as increase in FXR-mediated Bsep mRNA expression at 100 mg/kg, ig for 5 days by PCR method; type: functional, organism-based
[4] = Apparent permeability from basolateral to apical side in human Caco2 cells at 20 uM by LC-MS/MS method; type: ADME, cell-based; conditions: Caco-2
Jejunum = assay: Drug accumulation in C57BL/6 mouse jejunum at 100 mg/kg, ig for 5 days by LC-MS/MS method; type: ADME, organism-based; conditions: in vivo, po, 120 h
[5] = Drug uptake in human Caco2 cells at 20 and 50 uM by LC-MS/MS method; type: ADME, cell-based; conditions: Caco-2
[6] = Efflux ratio in human Caco2 cells at 50 uM by LC-MS/MS method; type: ADME, cell-based; conditions: Caco-2
Ileum = assay: Drug accumulation in C57BL/6 mouse ileum at 100 mg/kg, ig for 5 days by LC-MS/MS method; type: ADME, organism-based; conditions: in vivo, po, 120 h
Serum = assay: Drug accumulation in C57BL/6 mouse serum at 100 mg/kg, ig for 5 days by LC-MS/MS method; type: ADME, organism-based; conditions: in vivo, po, 120 h
[7] = Apparent permeability from apical side to basolateral side in human Caco2 cells at 50 uM by LC-MS/MS method; type: ADME, cell-based; conditions: Caco-2
[8] = Apparent permeability from basolateral to apical side in human Caco2 cells at 50 uM by LC-MS/MS method; type: ADME, cell-based; conditions: Caco-2
[9] = Apparent permeability from apical side to basolateral side in human Caco2 cells at 20 uM by LC-MS/MS method; type: ADME, cell-based; conditions: Caco-2
[10] = Drug uptake in human Caco2 cells at 20 and 50 uM by LC-MS/MS method relative to initial level; type: ADME, cell-based; conditions: caco-2, TDE = time-dependent effect
[11] = target: T1, Bile acid receptor (Rattus norvegicus) (UniProt Q62735); assay: Agonist activity at FXR in rat primary hepatocytes assessed as increase in SHP mRNA expression at 50 uM; type: cell-based
T1 sequence (whole entry): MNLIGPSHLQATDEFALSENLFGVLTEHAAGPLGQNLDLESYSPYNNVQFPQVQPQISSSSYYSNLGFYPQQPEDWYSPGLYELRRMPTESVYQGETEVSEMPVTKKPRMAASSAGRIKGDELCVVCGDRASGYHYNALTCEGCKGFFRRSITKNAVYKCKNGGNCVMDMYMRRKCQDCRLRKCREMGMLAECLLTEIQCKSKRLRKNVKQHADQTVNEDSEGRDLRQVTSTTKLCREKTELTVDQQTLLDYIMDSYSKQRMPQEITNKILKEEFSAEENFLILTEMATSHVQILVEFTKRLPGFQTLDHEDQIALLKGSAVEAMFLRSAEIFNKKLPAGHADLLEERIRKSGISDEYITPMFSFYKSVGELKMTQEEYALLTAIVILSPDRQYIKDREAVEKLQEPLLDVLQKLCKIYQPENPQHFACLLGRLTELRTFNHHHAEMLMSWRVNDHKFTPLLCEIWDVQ

[12] = target: T1, Bile acid receptor (Rattus norvegicus); assay: Agonist activity at FXR in rat primary hepatocytes assessed as reduction in CYP7A1 mRNA expression at 50 uM; type: cell-based
[13] = target: T2, Bile acid receptor (Homo sapiens) (UniProt Q96RI1); assay: Agonist activity at FXR in human Caco2 cells; type: cell-based
T2 sequence (whole entry): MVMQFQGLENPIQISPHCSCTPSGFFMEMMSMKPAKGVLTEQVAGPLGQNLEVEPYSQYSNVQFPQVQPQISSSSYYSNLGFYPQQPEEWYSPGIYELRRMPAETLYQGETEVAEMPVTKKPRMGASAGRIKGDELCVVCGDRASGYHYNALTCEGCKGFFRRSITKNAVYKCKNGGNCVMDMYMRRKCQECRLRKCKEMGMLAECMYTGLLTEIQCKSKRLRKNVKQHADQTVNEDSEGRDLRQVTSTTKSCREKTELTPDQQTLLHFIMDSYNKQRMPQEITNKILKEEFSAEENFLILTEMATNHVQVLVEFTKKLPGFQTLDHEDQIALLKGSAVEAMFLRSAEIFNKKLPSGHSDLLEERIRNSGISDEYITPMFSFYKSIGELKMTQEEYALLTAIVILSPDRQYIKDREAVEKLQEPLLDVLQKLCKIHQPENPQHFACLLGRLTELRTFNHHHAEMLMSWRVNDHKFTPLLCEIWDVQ

[14] = target: T2, Bile acid receptor (Homo sapiens); assay: Agonist activity at FXR in human Hepg2 cells; type: cell-based
[15] = target: T1, Bile acid receptor (Rattus norvegicus); assay: Agonist activity at FXR in rat primary hepatocytes assessed as increase in BSEP mRNA expression at 50 uM; type: cell-based
[16] = target: T1, Bile acid receptor (Rattus norvegicus); assay: Agonist activity at FXR in rat primary hepatocytes; type: cell-based
[17] = Solubility in DMSO/mineral oil medium; type: physicochemical
Mus musculus [18] = assay: Increase in FXR mRNA expression in C57BL/6 mouse ileum at 100 mg/kg, ig for 5 days by PCR method; type: functional, organism-based
Intestine = assay: Drug accumulation in C57BL/6 mouse intestine assessed as drug adherence to intestinal wall at 100 mg/kg, ig for 5 days by LC-MS/MS method; type: ADME, organism-based; conditions: in vivo, po, 120 h
Mus musculus [19] = assay: Induction of FXR activation in C57BL/6 mouse ileum assessed as increase in FXR-mediated Shp mRNA expression at 100 mg/kg, ig for 5 days by PCR method; type: functional, organism-based
Mus musculus [20] = assay: Effect on FXR mRNA expression in C57BL/6 mouse duodenum at 100 mg/kg, ig for 5 days by PCR method; type: ADME, organism-based; conditions: in vivo, po, 120 h
Mus musculus [21] = assay: Effect on FXR activation in C57BL/6 mouse kidney assessed as increase in FXR-mediated Shp mRNA expression at 100 mg/kg, ig for 5 days by PCR method; type: organism-based; conditions: in vivo, po, 120 h
Mus musculus [22] = assay: Effect on FXR mRNA expression in C57BL/6 mouse kidney at 100 mg/kg, ig for 5 days by PCR method; type: ADME, organism-based; conditions: in vivo, po, 120 h
Mus musculus [23] = assay: Effect on FXR mRNA expression in C57BL/6 mouse liver at 100 mg/kg, ig for 5 days by PCR method; type: ADME, organism-based; conditions: in vivo, po, 120 h
Mus musculus [24] = assay: Effect on FXR mRNA expression in C57BL/6 mouse jejunum at 100 mg/kg, ig for 5 days by PCR method; type: ADME, organism-based; conditions: in vivo, po, 120 h
Mus musculus [25] = assay: Effect on FXR activation in C57BL/6 mouse liver assessed as increase in FXR-mediated Shp mRNA expression at 100 mg/kg, ig for 5 days by PCR method; type: organism-based; conditions: in vivo, po, 120 h
[26] = target: T2, Bile acid receptor (Homo sapiens); assay: Binding affinity to FXR (unknown origin) relative to fexaramine
Mus musculus [27] = assay: Effect on FXR activation in C57BL/6 mouse non ileum part of intestine assessed as increase in FXR-mediated Shp mRNA expression at 100 mg/kg, ig for 5 days by PCR method; type: organism-based; conditions: in vivo, po, 120 h
Caco-2 = assay: Cytotoxicity against human Caco2 cells at 100 uM incubated for 24 hrs by MTT assay; type: cell-based; conditions: caco-2, 24 h
[28] = Drug uptake in human Caco2 cells at 20 and 50 uM by LC-MS/MS method after 3 hrs; type: ADME, cell-based; conditions: caco-2, 3 h
Bile acid receptor = target: T3, Bile acid receptor (Homo sapiens, UniProt Q96RI1); assay: Binding affinity to FXR (unknown origin)
T3 sequence (Q96RI1 whole entry): T2 sequence (whole entry)

## COC(=O)/C=C/c1cccc(N(Cc2ccc(-c3ccc(N(C)C)cc3)cc2)C(=O)C2CCCCC2)c1 [FEXARAMINE]
Liver
  Drug uptake: Active
[1]
  efflux ratio at 20 µM: 0.87
Mus musculus [2]
  Activity: Active
Mus musculus [3]
  Activity: Active
[4]
  Papp B→A at 20 µM: 24 ×10⁻⁶ cm/s
Jejunum
  Drug uptake: Active
[5]
  Drug uptake: Active
[6]
  efflux ratio at 50 µM: 1.14
Ileum
  Drug uptake: Active
Serum
  Drug uptake: Active
[7]
  Papp A→B at 50 µM: 762 ×10⁻⁶ cm/s
[8]
  Papp B→A at 50 µM: 873 ×10⁻⁶ cm/s
[9]
  Papp A→B at 20 µM: 27.7 ×10⁻⁶ cm/s
[10]
  Drug uptake: Tde

## COC(=O)/C=C/c1cccc(N(Cc2ccc(-c3ccc(N(C)C)cc3)cc2)C(=O)c2ccc3cc(N(C)C)ccc3c2)c1
[11]
  Activity: Active
[12]
  Activity: Active
[13]
  Activity: inactive
[14]
  Activity: inactive
[15]
  Activity: Active

## COC(=O)/C=C/c1cccc(N(CC2CCCCC2)C(=O)c2ccc3cc(N(C)C)ccc3c2)c1
[16]
  Activity: inactive
[13]
  Activity: inactive
[14]
  Activity: inactive

## CNc1ccc2cc(C(=O)N(Cc3ccc(-c4ccc(N(C)C)cc4)cc3)c3cccc(/C=C/C(=O)OC)c3)ccc2c1
[17]
  solubility: Insoluble
[1]
  efflux ratio at 20 µM: 0.35
Mus musculus [18]
  Activity: Active
Mus musculus [2]
  Activity: Active
[11]
  Activity: Active
Intestine
  Drug uptake: Active
Mus musculus [3]
  Activity: Active
[4]
  Papp B→A at 20 µM: 6.62 ×10⁻⁶ cm/s
[12]
  Activity: Active
Mus musculus [19]
  Activity: Active
[13]
  Activity: inactive
[14]
  Activity: inactive
[15]
  Activity: Active
Mus musculus [20]
  Activity: Non-Toxic
Mus musculus [21]
  Activity: Non-Toxic
Mus musculus [22]
  Activity: Non-Toxic
[5]
  Drug uptake: Active
Mus musculus [23]
  Activity: Non-Toxic
[6]
  efflux ratio at 50 µM: 0.77
Mus musculus [24]
  Activity: Non-Toxic
Ileum
  Drug uptake: Active
Mus musculus [25]
  Activity: Non-Toxic
[26]
  Ratio: 2000
Mus musculus [27]
  Activity: Non-Toxic
[7]
  Papp A→B at 50 µM: 97.6 ×10⁻⁶ cm/s
[8]
  Papp B→A at 50 µM: 75 ×10⁻⁶ cm/s
Caco-2
  Activity: Non-Toxic
[9]
  Papp A→B at 20 µM: 18.7 ×10⁻⁶ cm/s
[28]
  Drug uptake: Active
Bile acid receptor
  Kd: 48.7 µM

## CNc1ccc2cc(C(=O)N(CC3CCCCC3)c3cccc(/C=C/C(=O)OC)c3)ccc2c1
[16]
  Activity: inactive
[13]
  Activity: inactive
[14]
  Activity: inactive
